Columns and labels:
Experiment in all cases: relative viability (nuclei count vs DMSO), 5 days (fraction); higher = more cells survive
Sunitinib + Olaparib = compound: CCN(CC)CCNC(=O)c1c(C)[nH]c(/C=C2\C(=O)Nc3ccc(F)cc32)c1C [Sunitinib] + O=C(c1cc(Cc2n[nH]c(=O)c3ccccc23)ccc1F)N1CCN(C(=O)C2CC2)CC1 [Olaparib] (partner 8 µM)
Summary of the method: (§1)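 For relative viability, nuclei counts in treated wells were divided by those in vehicle wells. Lung cancer cell lines had been pin-tool dosed in 1536-well plates the day after seeding and cultured for 5 days, then fixed and stained in one step (final 0.05% Triton X-100, 1% formaldehyde, 1 ug/ml Hoechst) and imaged at 4×. Doses were one drug alone or a fixed anchor-drug dose plus five library-drug doses (not always all listed) in √10 steps, and values are duplicate-plate medians.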

Sunitinib + Alpelisib = compound: CCN(CC)CCNC(=O)c1c(C)[nH]c(/C=C2\C(=O)Nc3ccc(F)cc32)c1C [Sunitinib] + Cc1nc(NC(=O)N2CCC[C@H]2C(N)=O)sc1-c1ccnc(C(C)(C)C(F)(F)F)c1 [Alpelisib] (partner 2 µM)
Summary of the method: as §1

Sunitinib + Pemetrexed = compound: CCN(CC)CCNC(=O)c1c(C)[nH]c(/C=C2\C(=O)Nc3ccc(F)cc32)c1C [Sunitinib] + Nc1nc2[nH]cc(CCc3ccc(C(=O)N[C@@H](CCC(=O)O)C(=O)O)cc3)c2c(=O)[nH]1 [Pemetrexed] (partner 0.2 µM)
Summary of the method: as §1

Sunitinib + Palbociclib = compound: CCN(CC)CCNC(=O)c1c(C)[nH]c(/C=C2\C(=O)Nc3ccc(F)cc32)c1C [Sunitinib] + CC(=O)c1c(C)c2cnc(Nc3ccc(N4CCNCC4)cn3)nc2n(C2CCCC2)c1=O [Palbociclib] (partner 0.5 µM)
Summary of the method: as §1

Row | Cell Line | relative viability (Sunitinib + Olaparib; first compound 0.02 µM) | relative viability (Sunitinib + Olaparib; first compound 0.06325 µM) | relative viability (Sunitinib + Olaparib; first compound 0.2 µM) | relative viability (Sunitinib + Olaparib; first compound 0.6325 µM) | relative viability (Sunitinib + Olaparib; first compound 2 µM) | relative viability (Sunitinib + Alpelisib; first compound 0.02 µM) | relative viability (Sunitinib + Alpelisib; first compound 0.06325 µM) | relative viability (Sunitinib + Alpelisib; first compound 0.2 µM) | relative viability (Sunitinib + Alpelisib; first compound 0.6325 µM) | relative viability (Sunitinib + Pemetrexed; first compound 0.02 µM) | relative viability (Sunitinib + Pemetrexed; first compound 0.06325 µM) | relative viability (Sunitinib + Pemetrexed; first compound 0.2 µM) | relative viability (Sunitinib + Pemetrexed; first compound 0.6325 µM) | relative viability (Sunitinib + Pemetrexed; first compound 2 µM) | relative viability (Sunitinib + Palbociclib; first compound 0.02 µM) | relative viability (Sunitinib + Palbociclib; first compound 0.06325 µM) | relative viability (Sunitinib + Palbociclib; first compound 0.2 µM) | relative viability (Sunitinib + Palbociclib; first compound 0.6325 µM) | relative viability (Sunitinib + Palbociclib; first compound 2 µM) | relative viability (Sunitinib + Alpelisib; first compound 2 µM)
1 | NCI-H1755 | 0.859 | 0.881 | 0.93 | 0.961 | 0.91 | 0.938 | 0.915 | 1.01 | 0.94 | 0.427 | 0.502 | 0.636 | 0.407 | 0.52 | 0.423 | 0.46 | 0.49 | 0.459 | 0.468 | 
2 | NCI-H1792 | 0.491 | 0.371 | 0.98 | 0.404 | 0.384 | 0.578 | 0.56 | 0.78 | 0.682 | 0.619 | 0.942 | 1.26 | 1.21 | 0.775 | 0.627 | 0.661 | 0.763 | 0.612 | 0.734 | 0.824
3 | NCI-H1793 |  | 0.726 | 1.03 | 1 | 0.706 |  | 0.727 | 0.823 | 0.696 |  |  | 1.29 | 0.949 | 0.831 |  | 0.307 | 0.311 | 0.299 | 0.319 | 0.787
4 | NCI-H1915 | 0.261 | 0.288 | 0.268 | 0.245 | 0.289 |  | 1.09 | 1.13 | 1.06 | 0.428 | 0.486 | 0.499 | 0.527 | 0.484 | 0.472 | 0.545 | 0.573 | 0.502 | 0.579 | 1.11
5 | NCI-H1944 | 0.39 | 0.414 | 0.473 | 0.43 | 0.447 | 0.798 | 0.883 | 1.02 | 0.964 | 0.588 |  | 0.772 | 0.684 | 0.655 | 0.337 | 0.317 | 0.378 | 0.346 | 0.339 | 
6 | NCI-H1975 | 0.742 | 0.8 | 0.946 | 0.868 | 0.714 | 0.597 | 0.686 | 0.669 | 0.677 | 0.289 | 0.318 | 0.317 | 0.298 | 0.305 | 0.531 | 0.715 | 0.76 | 0.727 | 0.473 | 0.381
7 | NCI-H1993 | 1.02 | 0.979 | 1.12 | 0.844 | 1.03 | 0.674 | 0.697 | 0.716 | 0.689 | 0.436 | 0.563 | 0.584 | 0.55 | 0.575 | 0.635 | 0.7 | 0.687 | 0.815 | 0.622 | 0.68
8 | NCI-H2009 | 0.675 | 0.739 | 0.717 | 0.799 | 0.778 | 1.18 | 1.2 | 1.27 | 1.19 | 1.03 | 1.01 | 1.1 | 1.08 | 1.12 | 0.183 | 0.241 | 0.212 | 0.231 | 0.25 | 1.12
9 | NCI-H2023 | 0.487 | 0.485 | 0.518 | 0.462 | 0.465 | 0.638 | 0.584 | 0.697 | 0.64 | 0.235 | 0.307 | 0.265 | 0.301 | 0.222 | 0.361 | 0.424 | 0.456 | 0.437 | 0.343 | 0.516
10 | NCI-H2085 | 0.777 | 0.801 | 0.819 | 0.808 | 0.787 | 0.998 |  | 0.992 | 0.988 | 0.909 |  | 1.04 | 0.952 | 0.87 | 0.454 | 0.5 | 0.472 | 0.494 | 0.494 | 0.978
11 | NCI-H2087 | 0.605 | 0.689 | 0.822 | 0.674 | 0.56 | 0.904 | 1.06 | 1.11 | 1.23 | 0.711 | 0.693 | 0.559 | 0.626 | 0.693 | 0.27 | 0.266 | 0.25 | 0.28 | 0.255 | 1.01
12 | NCI-H2126 | 0.924 | 0.978 | 0.978 | 1 | 0.884 | 0.736 | 0.76 | 0.818 | 0.747 | 0.628 | 0.826 | 0.777 | 0.786 | 0.751 | 0.341 | 0.36 | 0.37 | 0.338 | 0.359 | 0.715
13 | NCI-H2170 | 0.593 | 0.571 | 0.651 | 0.605 | 0.535 | 0.757 | 0.782 | 0.998 | 0.914 | 0.259 | 0.274 | 0.432 | 0.291 | 0.275 | 0.392 | 0.376 | 0.422 | 0.379 | 0.421 | 0.777
14 | NCI-H2228 | 0.608 | 0.55 | 0.98 | 0.772 | 0.544 | 0.735 | 0.729 | 1 | 0.717 | 0.343 | 0.313 | 0.37 | 0.349 | 0.349 | 0.829 | 0.942 | 1.15 | 1.16 | 0.693 | 0.538
15 | NCI-H2347 | 0.596 | 0.611 | 0.695 | 0.609 | 0.572 | 0.996 | 1.03 | 1.13 | 1.09 | 0.415 | 0.446 | 0.419 | 0.44 | 0.458 | 0.454 | 0.43 | 0.453 | 0.422 | 0.472 | 0.947
16 | NCI-H2405 | 0.855 | 0.965 | 0.88 | 0.96 | 0.93 | 0.816 | 0.811 | 0.862 | 1.06 | 1.07 | 1.1 | 1.21 | 1.13 | 1.13 | 0.495 | 0.581 | 0.546 | 0.494 | 0.587 | 0.713
17 | NCI-H3122 | 0.636 | 0.692 | 0.657 | 0.606 | 0.585 |  | 0.894 | 0.84 | 0.725 | 0.201 | 0.215 | 0.202 | 0.185 | 0.205 | 0.159 | 0.189 | 0.213 | 0.176 | 0.207 | 0.803
